Patent US7371742B2, “Porphyrin derivatives for photodynamic therapy” (Institut Curie, priority 2001, dated 2008)
Read-outs that look alike come from different tables or passages of the source.

Columns and labels:
[1] = test system: human colic adenocarcinoma cell line HT29
Experimental: (§1) HT29 cells were cultivated in Dulbecco's MEM supplemented with 10% fetal calf serum (FCS). Cells from log-phase culture were seeded in 24-microwell plates (1 mL-5×10^4 cells/well) and kept at 37° C. in a water-jacketed incubator for 2 days under an air/CO2 atmosphere (5% CO2). Tested compounds, in DMSO solution, were added under the minimum volume (5 μL) to reach a concentration ranging from 0.1 to 10 μg/mL. Controls cells received 5 μL of DMSO free of dye. Plates were incubated 24 h, then medium was removed and the cells were washed twice with phosphate buffered saline (PBS) before addition of fresh medium free of drug and irradiation with visible light using a home made “light box” giving a fluence of 3.8 mW/cm^2 on the whole visible spectrum. Irradiation with red light was carried out using the same device fitted with an orange filter (0% T at 520 nm and 80% T at 590 nm) leading to a fluence of 2 mW/cm^2.
(§2) Plates were reincubated for 3 days before evaluation of the cell survival using the MTT assay (T. Mosmann, “Rapid calorimetric assay for cellular growth and survival. Application to proliferation assays”. J. Immunol. Methods 65,55-63,1983) using 30 min incubation with 100 μg well of 3-[4,5-dimethylthiazol-2-yl]-2,5-diphenyl tetrazolium bromide (MTT, Sigma). After removal of the medium, formazan crystals were taken up with 100 μL of DMSO and absorbance at 540 ni was measured with a Bio-Rad microplate reader (model 450); survival was expressed as % of untreated controls.

[2] = test system: RBY-79 (indifferently named Y-79) cells; assay: RBY-79 (Y79) cell cytotoxicity / photocytotoxicity
Text: (§3) Columns HT29 and Y79 (═RBY79), without light, correspond to the cytotoxic activity.

[3] = test system: human colic adenocarcinoma cell line HT29; assay: HT29 cell survival (MTT assay) after 24 h incubation, with or without light irradiation
Experimental: as §1, §2

[4] = test system: L-1210 cells; assay: Cytotoxicity L-1210 (no light), cytostatic activity; assay type: cell-based, human
Text: Column L1210 corresponds to the cytostatic activity.

[5] = test system: RBY-79 (indifferently named Y-79) cells
Text: as §3

[6] = read-out: Y79 IC50 (μM) without light, without light (cytotoxic activity)
[7] = read-out: HT 29 IC50 (μM) with 2J/cm^2, irradiation with filter (0% T at 520 nm, 80% T at 590 nm), 3.5 mW/cm^2, 10 min
[8] = read-out: HT 29 IC50 (μM) without light, without light (cytotoxic activity)

Compound	cytotoxic for HT29 (in words) [1]	IC50 ([2]; read-out: Y79 IC50 (μM) With 2J/cm^2, irradiation with filter (0% T at 520 nm, 80% T at 590 nm), 3.5 mW/cm^2, 10 min) [µM]	IC50 [2, 6] [µM]	IC50 [3, 7] [µM]	IC50 [3, 8] [µM]	Cytotoxicity L-1210 (no light), % at 10 μg/ml [4] [%]	cytotoxic for Y79 (in words) [5]	RBY-79, concentration giving 50% with light or not ([2]; 50% effect, with light or not) [% at 5 μg/ml]	Y79 IC50 (μM) With 2J/cm^2 ([2]; irradiation with filter (0% T at 520 nm, 80% T at 590 nm), 3.5 mW/cm^2, 10 min)	Photocytotoxicity RBY-79, % at 2 μg/ml [5] [% 2 μg/ml]
5, 10, 15-tri(meta-hydroxyphenyl)-20-phenyl)-2,3-chlorin and 5,10,15-tri(3-hydroxyphenyl)-7,8-chlorin [Compound 77-78]	cytotoxic	0.6 ± 0.1	> 10	1.5 ± 0.07	6.6 ± 0.9					
OC[C@H]1O[C@@H](SCc2ccc(-c3c4nc(c(-c5ccc(CS[C@@H]6O[C@H](CO)[C@@H](O)[C@H](O)[C@H]6O)cc5)c5ccc([nH]5)c(-c5ccc(CS[C@@H]6O[C@H](CO)[C@@H](O)[C@H](O)[C@H]6O)cc5)c5nc(c(-c6ccc(CS[C@@H]7O[C@H](CO)[C@@H](O)[C@H](O)[C@H]7O)cc6)c6ccc3[nH]6)C=C5)C=C4)cc2)[C@H](O)[C@@H](O)[C@@H]1O [Compound 65, TPP(p-CH2-S-β-GluOH)4]			4.7	5.2	> 10	16	cytotoxic	50	Inactive	
OC[C@H]1O[C@H](Sc2c(F)c(F)c(-c3c4nc(c(-c5c(F)c(F)c(F)c(F)c5F)c5ccc([nH]5)c(-c5c(F)c(F)c(F)c(F)c5F)c5nc(c(-c6c(F)c(F)c(F)c(F)c6F)c6ccc3[nH]6)C=C5)C=C4)c(F)c2F)[C@@H](O)[C@@H](O)[C@@H]1O [Compound 30]										90
